This is an account of results in ChEMBL document CHEMBL1152844, “Synthesis and anti-HIV studies of 2- and 3-adamantyl-substituted thiazolidin-4-ones” (Eur J Med Chem, 2009).

Series [1] concerns Vaccinia virus. Put plainly: Antiviral activity against Vaccinia virus infected in HEL cells. The series is classed as functional, organism-based. The following applies: Orthopoxvirus vaccinia.
The subject of series [2] is Vesicular stomatitis virus. The experiment in a line: Antiviral activity against Vesicular stomatitis virus infected in HEL cells. The series is classed as functional, organism-based.
Series [3] has as its system Coxsackievirus B4. Put plainly: Antiviral activity against Coxsackievirus B4 infected in african green monkey Vero cells. The series is classed as functional, organism-based.
For series [4], the system named is Human alphaherpesvirus 2. The experiment in a line: Antiviral activity against Herpes simplex virus type 2 infected in HEL cells. The series is classed as functional, organism-based.
The test system of series [5] is Influenza A virus. The experiment in a line: Antiviral activity against Influenza virus type A H1N1 infected in MDCK cells. The series is classed as functional, organism-based.
Series [6] relates to Influenza B virus. Put plainly: Antiviral activity against Influenza virus type B infected in MDCK cells. The series is classed as functional, organism-based.
Series [7] deals with Human immunodeficiency virus 2. Put plainly: Antiviral activity against HIV2 ROD infected in human CEM cells assessed as inhibition of virus-induced cytopathicity after 4 days. The series is classed as functional, organism-based. The following applies: Human immunodeficiency virus 2, ROD, CCRF-CEM, 96 h.
The test system of series [8] is Human respirovirus 3. Put plainly: Antiviral activity against Parainfluenza virus type 3 infected in african green monkey Vero cells. The series is classed as functional, organism-based.
Series [9] relates to Coxsackievirus B4. The experiment in a line: Antiviral activity against Coxsackievirus B4 infected in human HeLa cells. The series is classed as functional, organism-based.
For series [10], the system named is Influenza A virus. Put plainly: Antiviral activity against Influenza virus type A H3N2 infected in MDCK cells. The series is classed as functional, organism-based.
In series [11] the test system is Respiratory syncytial virus. The experiment in a line: Antiviral activity against Respiratory syncytial virus infected in human HeLa cells. The series is classed as functional, organism-based.
For series [12], the system named is Sindbis virus. The experiment in a line: Antiviral activity against Sindbis virus infected in african green monkey Vero cells. The series is classed as functional, organism-based.
Series [13] concerns CCRF-CEM. Put plainly: Cytotoxicity against HIV-infected human CEM cells. The series is classed as cell-based. The following applies: ccrf-cem.
Series [14] concerns Vesicular stomatitis virus. Put plainly: Antiviral activity against Vesicular stomatitis virus infected in human HeLa cells. The series is classed as functional, organism-based.
Series [15] has as its system Human alphaherpesvirus 1. Put plainly: Antiviral activity against Herpes simplex virus type 1 infected in HEL cells. The series is classed as functional, organism-based.
A short description of series [16]: Selectivity index, ratio of CC50 for human CEM cells to EC50 for HIV1 3B. The series is classed as toxicity, cell-based, CCRF-CEM. The settings on record: read-out: Ratio CC50/EC50.
In series [17] the test system is Human immunodeficiency virus 1. Put plainly: Antiviral activity against HIV1 3B infected in human CEM cells assessed as inhibition of virus-induced cytopathicity after 4 days. The settings on record: Human immunodeficiency virus 1, 3B, CCRF-CEM, 96 h. The series is classed as functional, organism-based.
The test system of series [18] is Punta Toro virus. The experiment in a line: Antiviral activity against Punta Toro virus infected in african green monkey Vero cells. The series is classed as functional, organism-based.
Series [19] has as its system Feline coronavirus. The experiment in a line: Antiviral activity against Feline coronavirus infected in crandel feline kidney cells. The series is classed as functional, organism-based.
The subject of series [20] is Mammalian orthoreovirus 1. Put plainly: Antiviral activity against Reovirus 1 infected in african green monkey Vero cells. The series is classed as functional, organism-based.

Active and inactive are the calls of the source. No cut-off for these calls is given here.

Turning to `Cc1ccnc(N2C(=O)CSC2CC23CC4CC(CC(C4)C2)C3)n1` (centres undefined), the outcome in [1], in series [2], in series [3], in series [4], in series [5] and in series [6] was inactive. For the same compound, the result in series [8], in series [9], in series [10], in series [11], in series [12] and in series [14] was inactive. For the same compound, the result in series [15], in series [18], in [19] and in series [20] was inactive. In addition, the 50% effective concentration (EC50) in series [7] is 23.5 µM; in series [17], no less than 11.6 µM. In addition, the CC50 in series [13] was found to be 27.3 µM. The selectivity ratio in series [16] is less than 2.3.
As for `Cc1cc(C)nc(N2C(=O)CSC2CC23CC4CC(CC(C4)C2)C3)n1` (centres undefined), the outcome in series [1], in series [2], in series [3], in series [4], in [5] and in [6] was inactive. In addition, the result in series [8], in series [9], in [10], in series [11], in series [12] and in series [14] was inactive. Also, the result in series [15], in series [18], in [19] and in series [20] was inactive. The EC50 was 30 µM in [7] and 8.6 µM in series [17]. The compound further gave a 50% cytotoxic concentration (CC50) in series [13] of 27 µM. Moreover, in series [16], the selectivity ratio is 3.
Consider `Cc1cc(C)nc(N2C(=O)CSC2C23CC4CC(CC(C4)C2)C3)n1` (centres undefined), for which the result in series [1], in series [2], in series [3], in [4], in [5] and in [6] was inactive. In addition, the outcome in series [8], in [9], in [10], in [11], in [12] and in [14] was inactive. Further, the outcome in series [15], in [18], in series [19] and in [20] was inactive. Moreover, the concentration giving a half-maximal response (EC50) is no less than 58 µM in series [7] and 0.67 µM in series [17]. Also, the midpoint of cytotoxicity in [13], the CC50, lay at 122 µM. In series [16], the selectivity ratio was found to be 182.
`Cc1ccnc(N2C(=O)CSC2C23CC4CC(CC(C4)C2)C3)n1` (centres undefined): the outcome in series [1], in [2], in [3], in [4], in series [5] and in series [6] was inactive. Besides, the outcome in series [8], in [9], in series [10], in [11], in [12] and in series [14] was inactive. Besides, the outcome in series [15], in series [18], in series [19] and in [20] was inactive. Further, the EC50 in series [7] was greater than 60.7 µM; in [17], 4.5 µM. In series [13], the CC50 is 136 µM. In series [16], the selectivity ratio came out at 30.
In the case of `O=C1CSC(CC23CC4CC(CC(C4)C2)C3)N1CCN1CCCC1` (centres undefined), the result in [1], in [2], in series [3], in series [4], in series [5] and in series [6] was inactive. Moreover, the result in series [8], in series [9], in series [10], in series [11], in series [12] and in series [14] was inactive. Also, the outcome in [15], in series [18], in [19] and in series [20] was inactive. The figures for the EC50 in [7] and in [17] were no less than 57 µM and 48.7 µM, respectively. In [13], it took 77 µM to reach half-maximal cytotoxicity (CC50). Further, the selectivity ratio in series [16] was determined as 1.6.
For the compound `Cc1cc(N2C(=O)CSC2CC23CC4CC(CC(C4)C2)C3)nc(C)n1` (centres undefined), the outcome in series [1], in series [2], in [3], in series [4], in [5] and in series [6] was inactive. The result in [8], in [9], in series [10], in [11], in series [12] and in series [14] was inactive. Also, the result in [15], in [18], in [19] and in series [20] was inactive. In addition, the EC50 in series [7] and in series [17] was no less than 11.2 µM in each case. This compound also displayed a CC50 in series [13] of 22.1 µM. In series [16], the selectivity ratio is less than 1.9.
With `Cc1cc(Cl)nc(N2C(=O)CSC2C23CC4CC(CC(C4)C2)C3)n1` (centres undefined), the outcome in [1], in series [2], in series [3], in series [4], in series [5] and in [6] was inactive. The result in series [8], in series [9], in series [10], in series [11], in series [12] and in [14] was inactive. Besides, the outcome in series [15], in series [18], in series [19] and in [20] was inactive. Besides, the EC50 in series [7] is 120 µM; in series [17] it was no less than 54.9 µM. The same compound showed a cytotoxic concentration (CC50) in [13] greater than 275 µM. The selectivity ratio in series [16] is less than 5.
In the case of `Cc1ccnc2c1NC(=O)c1cccnc1N2C1CC1` [NEVIRAPINE], the EC50 in series [7] is greater than 50 µM. The compound further showed a CC50 in [13] greater than 50 µM.
Take `Cc1cccc(N2C(=O)CSC2CC23CC4CC(CC(C4)C2)C3)n1` (centres undefined): the outcome in series [1], in series [2], in series [3], in series [4], in series [5] and in series [6] was inactive. In addition, the result in [8], in series [9], in series [10], in series [11], in series [12] and in series [14] was inactive. Moreover, the result in [15], in series [18], in series [19] and in [20] was inactive. Also, the EC50 was found to be 21.9 µM in [7] and 17.8 µM in [17]. In series [13], this compound registered a CC50 of 35 µM. Besides, in series [16], the selectivity ratio amounted to 1.9.
As for `Cc1cc(N2C(=O)CSC2C23CC4CC(CC(C4)C2)C3)nc(C)n1` (centres undefined), the result in [1], in series [2], in [3], in series [4], in series [5] and in [6] was inactive. Besides, the outcome in [8], in series [9], in [10], in series [11], in series [12] and in [14] was inactive. Moreover, the outcome in series [15], in [18], in series [19] and in [20] was inactive. The EC50 in series [7] and in [17] was no less than 58.2 µM in each case. Moreover, it took 94 µM to reach half-maximal cytotoxicity in series [13] (CC50). Also, the selectivity ratio in series [16] is less than 1.6.
For `O=c1[nH]cnc2c1ncn2[C@H]1CC[C@@H](CO)O1` [DIDANOSINE], in series [13], the CC50 was greater than 250 µM. Also, in [16], the selectivity ratio is greater than 54.
